Data published in patent US20140234212A1, “Targeted Buccal Delivery of Agents” (Massachusetts Institute of Technology, priority 2013, published 2014).
Like-named read-outs stand apart in the source and are kept apart here.

Assays:
[1] = tested on: HCPC 1 (hamster cheek pouch carcinoma) cells; assay: MTS cell viability assay; type: cell-based; details: HCPC 1 cells, 48 h
Procedure: A cell viability study of 33% cisplatin-loaded nanoparticles was also conducted using the tetrazolium compound (3-(4,5-dimethylthiazol-2-yl)-5-(3-carboxymethoxy phenyl)-2-(4-sulfophenyl)-2H-tetrazolium inner salt, MTS. When incorporated by the cells, MTS is bioreduced by metabolically active cells. The amount of […] is directly proportional to the number of living cells in culture.

[2] = tested on: hamster cheek pouch carcinoma (HCPC1) tumors; assay: Tumor inhibition and weight change in HCPC1 allografted hamsters; type: in vivo, Golden Syrian hamsters; details: 1.15 mg/kg cisplatin equivalent; sponge topically, free cisplatin intraperitoneally
Procedure: Golden Syrian hamsters, 71-80 g, were anesthetized and prepared for implantation of the tumor cells. Hamster cheek pouch carcinoma (HCPC 1) cells were collected from culture, and 1×10^8 cells suspended in PBS buffer were then injected subcutaneously into the cheek pouch of a hamster. After 7 days when tumors reached around 100 mm^3 in size, hamsters were divided into 4 groups, minimizing weight and tumor size difference. […] Two doses were administrated with 3-day interval. After treatments, the animals were monitored closely, and measurements of the tumor size and body weight for each animal were performed at regular intervals using calipers without knowledge of which injection each animal had received. The tumor volume for each time point was calculated according to the formula, (length)×(width)^2/2, where the long axis is the length, the short axis is the width.

[3] = type: in vitro ADME, pig; details: not told
Procedure: FITC labeled chitosan NPs were used.
b) Ethanol (100% Ethanol diluted with 50% PBS) c) 2-Dimethylaminopropionic acid dodecyl ester (DDAIP) (“DDAIP”) (2 g/100 ml diluted in PBS) d) Ethanol+DDAIP (100% Ethanol diluted with 4 g/100 ml of DDAIP to achieve the same final working concentration of Ethanol and DDAIP as used in (b) and (c) respectively. e) TDCA (100 mM diluted in PBS)
Fresh pig tongue was obtained from the Butcher shop at Cambridge. The middle portion of the tongue was selected for these studies. 5 designated sections were chosen on this portion and 0.75 mL of each of these PEs were applied at each of these sections, followed by the addition of the wafers (25 mg each) with additional 0.75 mL of PEs on top of the wafers. The incubation was done in the dark at RT for 1 hour. The tongue was then washed with water and all the wafers were removed from their designated sections. The respective sections were individually cut and embedded into an OCT for sectioning using a microtome. 50 microns slices were cut from each of these sections and 2 slices were placed on slides. The slides were kept submerged in water for 3 hours to remove any bound OCT as it interferes with the image quality. Following that, each of the slides from different sections were mounted with cover slips using a DAPI containing mounting media and imaged using a fluorescence microscope. Images were taken at 4×, 10× and 20× in both FITC and DAPI channels. In addition, slices of untreated tongue were also cut and imaged to account for inherent fluorescence of the tongue. However, before conducting permeation studies, many experiments were performed to discover the optimal concentrations of PEs that would not result in significant modifications to out current wafer synthesis protocol and allow seamless integration into the wafer.

N.N.[Cl][Pt][Cl] [free cisplatin, cis-diamminedichloroplatinum(ll)]
IC50 [1]: ~60 nM | tumor inhibition [2]: comparable decrease in tumor size | weight change [2]: significant weight loss

C[C@H](CCC(=O)NCCS(=O)(=O)O)[C@H]1CC[C@H]2[C@@H]3CC[C@@H]4C[C@H](O)CC[C@]4(C)[C@H]3C[C@H](O)[C@]12C [TDCA]
Permeation Depth [3]: 100 microns

CCO [Ethanol]
Permeation Depth ([3]; pig, 1 hour): 140 microns

CCCCCCCCCCCCOC(=O)C(C)N(C)C (stereo not shown) [DDAIP, 2-Dimethylaminopropionic acid dodecyl ester]
Permeation Depth ([3]; pig, 1 hour): 200 microns | depth permeated by the NPs ([3]; pig, 1 hour, 2 g/100 ml): 200 μm
